Patent US20110223666A1, “CYTOPLASM EXPOSURE ADDITIVE AND METHOD FOR EXPOSING PARTICLES DELIVERED INTO CELL TO CYTOPLASM FROM ENDOCYTIC VESICLES IN INTACT CELL” (MEDISCOV INC., priority 2008, published 2011)

System: HeLa cells
Assay: Exposure of dasatinib-modified particles from endocytic vesicles to cytoplasm, seen as co-localization with EGFP-ABL1 fluorescence
Type: cell-based
Conditions: HeLa cells transfected with EGFP-ABL1 with dasatinib-particles; cells fixed by the additive, not observed in a living state
Description: In addition, ABL1 (GenBank Acc. No. NM—198291) which binds to dasatinib was used for another linker constituting a mediator.
EGFP-ABL1 expression vector was produced by a known method (Sambrook & Russell, 2001, Molecular Cloning, Cold Spring Harbor Laboratory Press). After HeLa cells were subcultured to 6,000 cells/well on a 96-well plate, the expression vector DNA was transfected into a cell as mentioned in Example 1.
The particles modified with dasatinib were introduced into the cell transfected with DNA in the following. The cultured HeLa cells were treated with the modified particles according to the following processes:
1) Streptavidin-magnetic particles were mixed with dasatinib-biotin and the mixture was allowed to be reacted with each other. As a result, the particles modified with dasatinib were prepared;
In this embodiment, Olympus fluorescence microscope, FV1000, equipped with the object lens of Uplan Apo 40×/0.85 was used to obtain transmitted images and fluorescent images in the cells.

Compound | function as a cytoplasm exposure additive (exposure of particles to cytoplasm from endocytic vesicles)
CCO [ethanol] | exposed the particles to cytoplasm from endocytic vesicles effectively
CO [methanol] | exposed the particles to cytoplasm from endocytic vesicles effectively
paraformaldehyde | exposed the particles to cytoplasm from endocytic vesicles effectively
